Data on 1 molecule can be found in article PMC6461439, “Enzyme activity and selectivity filter stability of ancient TRPM2 channels were simultaneously lost in early vertebrates” (eLife, 2019).

The target of experiment [1] is T1, nvTRPM2 (Nematostella vectensis, UniProt A7T1N0, E1443I/F1444L).
T1 construct: gene TRPM2

The target of experiment [2] is T2, nvTRPM2 (Nematostella vectensis, UniProt A7T1N0, E1446K/E1447K).
T2 construct: gene TRPM2
T2 sequence (A7T1N0 whole entry E1446K/E1447K): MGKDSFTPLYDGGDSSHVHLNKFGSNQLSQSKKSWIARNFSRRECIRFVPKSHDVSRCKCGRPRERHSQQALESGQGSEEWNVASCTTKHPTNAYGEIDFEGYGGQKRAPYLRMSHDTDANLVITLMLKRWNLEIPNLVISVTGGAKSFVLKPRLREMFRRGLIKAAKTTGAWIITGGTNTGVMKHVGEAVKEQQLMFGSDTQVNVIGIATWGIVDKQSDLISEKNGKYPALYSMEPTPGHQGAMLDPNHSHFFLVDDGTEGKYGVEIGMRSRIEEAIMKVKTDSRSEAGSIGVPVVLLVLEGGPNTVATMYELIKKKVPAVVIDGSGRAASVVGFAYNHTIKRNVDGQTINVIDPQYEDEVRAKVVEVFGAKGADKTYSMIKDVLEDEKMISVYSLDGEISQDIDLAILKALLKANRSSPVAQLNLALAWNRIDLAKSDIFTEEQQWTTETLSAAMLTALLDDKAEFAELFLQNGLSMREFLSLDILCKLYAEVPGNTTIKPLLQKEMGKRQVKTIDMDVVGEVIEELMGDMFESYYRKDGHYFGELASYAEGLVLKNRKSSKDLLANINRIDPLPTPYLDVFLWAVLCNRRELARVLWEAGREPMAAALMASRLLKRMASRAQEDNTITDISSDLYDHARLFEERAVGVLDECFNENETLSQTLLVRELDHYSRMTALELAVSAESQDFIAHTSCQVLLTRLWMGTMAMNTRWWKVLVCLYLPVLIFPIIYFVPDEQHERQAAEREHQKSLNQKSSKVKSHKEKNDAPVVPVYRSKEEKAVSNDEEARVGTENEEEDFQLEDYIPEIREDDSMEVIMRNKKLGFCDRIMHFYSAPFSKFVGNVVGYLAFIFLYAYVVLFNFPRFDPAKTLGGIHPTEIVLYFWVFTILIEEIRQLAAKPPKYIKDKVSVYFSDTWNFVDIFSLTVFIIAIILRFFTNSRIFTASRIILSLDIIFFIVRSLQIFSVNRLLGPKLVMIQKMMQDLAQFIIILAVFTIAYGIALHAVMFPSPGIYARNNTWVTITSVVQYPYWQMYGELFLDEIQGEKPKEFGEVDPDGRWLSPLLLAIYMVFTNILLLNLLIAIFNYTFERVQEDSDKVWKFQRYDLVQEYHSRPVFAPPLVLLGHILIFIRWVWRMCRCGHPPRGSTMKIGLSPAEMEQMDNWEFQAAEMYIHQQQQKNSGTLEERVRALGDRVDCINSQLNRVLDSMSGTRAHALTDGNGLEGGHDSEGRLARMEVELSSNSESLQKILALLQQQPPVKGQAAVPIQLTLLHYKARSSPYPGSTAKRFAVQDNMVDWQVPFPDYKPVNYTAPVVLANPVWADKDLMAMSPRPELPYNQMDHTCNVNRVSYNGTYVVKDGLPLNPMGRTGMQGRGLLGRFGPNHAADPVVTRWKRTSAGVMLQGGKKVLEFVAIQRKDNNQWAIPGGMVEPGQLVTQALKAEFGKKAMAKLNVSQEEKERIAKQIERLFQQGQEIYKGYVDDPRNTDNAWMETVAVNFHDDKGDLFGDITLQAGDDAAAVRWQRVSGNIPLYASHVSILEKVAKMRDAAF

T1 sequence (A7T1N0 whole entry E1443I/F1444L): as the sequence (A7T1N0 whole entry E1446K/E1447K) above, with E1443I, F1444L, K1446E, K1447E counted along it

One may read the EC50 as the concentration needed to bring the measured effect to its halfway point. A high value points to a need for much substance. Regarding `Nc1ncnc2c1ncn2[C@@H]1O[C@H](COP(=O)(O)OP(=O)(O)OC[C@H]2OC(O)[C@H](O)[C@@H]2O)[C@@H](O)[C@H]1O` (some centres unmarked) [ADPR], the EC50 on nvTRPM2 [1] and at nvTRPM2 [2] was roughly 2000 nM each time.
